Data reported in US12594268B2, “Methods of treating Fabry disease in patients having a mutation in the GLA gene” (Amicus Therapeutics, Inc., priority 2018, dated 2026).
Changes are numbered by the printed parent chain.

What was measured:
[1] = biological target: T1, α-Gal A mutant form Q330P (Homo sapiens, UniProt P06280, Q330P); experiment: α-Gal A activity in lysates of transfected HEK-293 cells, Q330P; format: cell-based
T1 construct: expressed in transfected cells; host or cells: HEK-293
T1 sequence (P06280 32-429 Q330P): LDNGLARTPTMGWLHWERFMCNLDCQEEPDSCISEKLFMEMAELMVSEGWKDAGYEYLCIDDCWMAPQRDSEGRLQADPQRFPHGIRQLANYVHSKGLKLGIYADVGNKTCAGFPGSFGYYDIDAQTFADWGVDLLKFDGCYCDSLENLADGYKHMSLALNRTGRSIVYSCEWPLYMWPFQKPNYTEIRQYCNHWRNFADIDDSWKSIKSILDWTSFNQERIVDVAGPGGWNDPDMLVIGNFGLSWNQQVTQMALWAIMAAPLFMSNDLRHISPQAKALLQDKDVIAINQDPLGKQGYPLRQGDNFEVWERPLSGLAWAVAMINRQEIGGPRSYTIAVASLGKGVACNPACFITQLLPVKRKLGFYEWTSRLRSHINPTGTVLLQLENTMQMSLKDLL
Protocol: (§1) Baseline and 10 μM migalastat α-Gal A activity: Differences in the α-Gal A activity between lysates incubated in the absence and presence of 10 μM migalastat were determined using a one-tailed, Mann Whitney U test; an increase at 10 μM migalastat with a p<0.05 was considered significant.
(§2) 10 μM migalastat α-Gal A activity (% WT)=(α-Gal A activity in mutant transfected cell lysates incubated with 10 μM migalastat÷α-Gal A activity in wild-type transfected cell lysates without migalastat)*100.
(§3) Absolute increase (% WT)=is the 10 μM migalastat α-Gal A activity (% WT) minus the baseline α-Gal A activity (% WT).
(§4) Relative increase is the 10 μM migalastat α-Gal A activity in mutant transfected cell lysates÷baseline α-Gal A activity in mutant transfected cell lysates incubated without migalastat.

[2] = biological target: T2, α-Gal A mutant form P323T (Homo sapiens, UniProt P06280, P323T); experiment: α-Gal A activity in lysates of transfected HEK-293 cells, P323T; format: cell-based
T2 construct: expressed in transfected cells; host or cells: HEK-293
T2 sequence (P06280 32-429 P323T): T1 sequence (P06280 32-429 Q330P) with P292T, P299Q
Protocol: as §1, §2, §3, §4

[3] = biological target: T3, α-Gal A mutant form S62delinsLA (Homo sapiens, UniProt P06280, INS61L/S62A); experiment: α-Gal A activity in lysates of transfected HEK-293 cells, S62delinsLA; format: cell-based
T3 construct: expressed in transfected cells; host or cells: HEK-293
T3 sequence (P06280 with tags, fused parts or gaps INS61L/S62A): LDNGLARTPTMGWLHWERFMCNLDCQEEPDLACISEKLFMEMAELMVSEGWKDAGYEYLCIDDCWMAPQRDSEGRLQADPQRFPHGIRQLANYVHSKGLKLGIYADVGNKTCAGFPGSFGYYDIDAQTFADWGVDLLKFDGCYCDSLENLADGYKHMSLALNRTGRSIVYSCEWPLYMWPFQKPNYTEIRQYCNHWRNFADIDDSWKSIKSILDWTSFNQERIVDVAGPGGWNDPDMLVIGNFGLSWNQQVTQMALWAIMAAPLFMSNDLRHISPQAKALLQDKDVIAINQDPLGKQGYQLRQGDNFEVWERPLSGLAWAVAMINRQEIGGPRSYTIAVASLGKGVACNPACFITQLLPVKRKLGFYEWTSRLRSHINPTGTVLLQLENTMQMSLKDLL
Protocol: as §1, §2, §3, §4

[4] = biological target: T4, α-Gal A mutant form R112L (Homo sapiens, UniProt P06280, R112L); experiment: α-Gal A activity in lysates of transfected HEK-293 cells, R112L; format: cell-based
T4 construct: expressed in transfected cells; host or cells: HEK-293
T4 sequence (P06280 32-429 R112L): T1 sequence (P06280 32-429 Q330P) with R81L, P299Q
Protocol: as §1, §2, §3, §4

[5] = tested on: mutant form of α-Gal A expressed in HEK-293 cells; experiment: HEK assay amenability criteria (relative increase ≥1.20-fold and absolute increase ≥3.0% wild-type)
Protocol: The α-Gal A activity was measured in lysates prepared from HEK-293 cells transiently transfected with the indicated mutant form of α-Gal A and incubated in the absence or presence of 10 μM migalastat for 5 days. The α-Gal A activity is expressed as the nmoles of free 4-MU released per milligram of protein per hour (nmol/mg/hr). Baseline α-Gal A activity and α-Gal A activity after incubation with 10 μM migalastat, were additionally expressed as a percentage of baseline wild-type α-Gal A activity (% WT). The wild-type α-Gal A activity that was used to calculate these percentages was the average activity measured in lysates from wild-type transfected cells, incubated in the absence of migalastat, measured in parallel.

α-Gal A mutant form Q57R = biological target: T5, α-Gal A mutant form Q57R (Homo sapiens, UniProt P06280, Q57R); experiment: α-Gal A activity in lysates of transfected HEK-293 cells, Q57R; format: cell-based
T5 construct: expressed in transfected cells; host or cells: HEK-293
T5 sequence (P06280 32-429 Q57R): T1 sequence (P06280 32-429 Q330P) with Q26R, P299Q
Protocol: as §1, §2, §3, §4

[6] = 10 μM migalastat minus baseline
[7] = 10 μM migalastat ÷ baseline activity
[8] = HEK-293 lysates, 10 μM migalastat, 5 days, mean ± SEM

## OC[C@H]1NC[C@H](O)[C@@H](O)[C@H]1O [migalastat, (2R,3S,4R,5S)-2-(hydroxymethyl) piperdine-3,4,5-triol]
[1]; [6]
  Absolute increase (% WT): 24.4 % WT
[1]; [7]
  Relative increase: 2.21
[1]; [8]
  10 μM migalastat α-Gal A activity: 12375 ± 664 nmol/mg/h
  10 μM migalastat α-Gal A activity (% WT): 45.8 ± 1.9 % WT
[2]; [6]
  Absolute increase (% WT): 12.3 % WT
[2]; [7]
  Relative increase: 1.21
[2]; [8]
  10 μM migalastat α-Gal A activity: 29631 ± 1144 nmol/mg/h
  10 μM migalastat α-Gal A activity (% WT): 71.3 ± 4.1 % WT
[3]; [6]
  Absolute increase (% WT): 20.9 % WT
[3]; [7]
  Relative increase: 50.92
[3]; [8]
  10 μM migalastat α-Gal A activity: 8115 ± 810 nmol/mg/h
  10 μM migalastat α-Gal A activity (% WT): 21.3 ± 1.7 % WT
[4]; 10 μM migalastat minus baseline (baseline BLD)
  Absolute increase (% WT): 7.5 % WT
[4]; [8]
  10 μM migalastat α-Gal A activity (% WT): 7.5 ± 1.1 % WT
[4]; HEK-293 lysates, 10 μM migalastat, 5 days, mean ± SEM, baseline BLD
  10 μM migalastat α-Gal A activity: 2364 ± 296 nmol/mg/h
[5]; Table 2, mutations D33H, G35A, Y88S, T194A, W204G, Y216S, Q250K, and R392T
  in vitro response to incubation with migalastat (amenability): met amenability criteria
[5]; Table 3, mutations printed as D33H, G35A, Y88S, T194A, W204G, Y216S, Q250K, and R392T
  in vitro response to incubation with migalastat (amenability): met amenability criteria
[5]; Table 4, mutations V22G, N34H, G80V, Q107R, Y152D, A156S, L189F, W204L, S238G, 1239M, A257V, P259Q, N320H, P323T, E338V, P380L, and T412P
  in vitro response to incubation with migalastat (amenability): met amenability criteria
α-Gal A mutant form Q57R; [6]
  Absolute increase (% WT): 24.0 % WT
α-Gal A mutant form Q57R; [7]
  Relative increase: 1.30
α-Gal A mutant form Q57R; [8]
  10 μM migalastat α-Gal A activity: 26357 ± 916 nmol/mg/h
  10 μM migalastat α-Gal A activity (% WT): 105.0 ± 3.0 % WT
